We go through 2 compounds from ChEMBL document CHEMBL4043296 (J Med Chem, 2018).

Structures are written as SMILES.

A short description of series [1]: Half life in CD1 mouse plasma at 3 mg/kg, sc by UPLC-MS analysis. Format: ADME, organism-based.
Series [2] in a line: Ratio of fAUC in CD1 mouse brain to fAUC in CD1 mouse plasma at 3 mg/kg, sc. Format: ADME, organism-based. As to conditions: read-out: K(p,uu,brain).
The nature of series [3]: Ratio of AUC in CD1 mouse brain to AUC in CD1 mouse plasma at 3 mg/kg, sc. The format is ADME, organism-based. As to conditions: read-out: Ratio AUC.
A short description of series [4]: Tmax in CD1 mouse brain at 3 mg/kg, sc by UPLC-MS analysis. The format is ADME, organism-based.
In another series the test system is Plasma. Briefly: fAUClast in CD1 mouse plasma at 3 mg/kg, sc by UPLC-MS analysis. Format: ADME, organism-based. As to conditions: in vivo.
Series [5] can be described thus: AUClast in CD1 mouse plasma at 3 mg/kg, sc by UPLC-MS analysis. Format: ADME, organism-based. On the set-up: dose 3 mg/kg, route subcutaneous, time 0 - last.
The nature of series [6]: Half life in CD1 mouse brain at 3 mg/kg, sc by UPLC-MS analysis. The format is ADME, organism-based.
The next series has as its target T1, D(4) dopamine receptor (Homo sapiens, UniProt P21917).
T1 sequence (P21917 whole entry): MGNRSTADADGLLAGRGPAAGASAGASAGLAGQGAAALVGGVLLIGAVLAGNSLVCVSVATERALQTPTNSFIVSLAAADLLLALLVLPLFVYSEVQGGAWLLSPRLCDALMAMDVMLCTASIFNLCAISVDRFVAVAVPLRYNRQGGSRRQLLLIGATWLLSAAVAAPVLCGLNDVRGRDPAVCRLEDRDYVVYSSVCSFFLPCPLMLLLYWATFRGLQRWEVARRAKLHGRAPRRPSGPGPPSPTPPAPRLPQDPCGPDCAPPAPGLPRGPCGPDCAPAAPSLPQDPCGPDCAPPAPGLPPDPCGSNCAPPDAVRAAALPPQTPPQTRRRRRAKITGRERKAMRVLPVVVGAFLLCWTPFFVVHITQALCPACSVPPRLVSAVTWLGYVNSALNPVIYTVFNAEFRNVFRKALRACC
Briefly: Agonist activity at human SP/Myc epitope-tagged dopamine D4 receptor expressed in HEK293T cells assessed as RLuc8-fused Galphai1 activation after 2 mins by BRET assay. The format is cell-based, HEK-293T. (In BRET a luciferase serves as donor, and the signal depends on an acceptor being close.)

Series [7] can be described thus: Cmax in CD1 mouse plasma at 3 mg/kg, sc after 0.25 hrs by UPLC-MS analysis. Format: ADME, organism-based. Set-up: dose 3 mg/kg, route subcutaneous.
Series [8] concerns the target T2, Muscarinic acetylcholine receptor M1 (Homo sapiens, UniProt P11229).
T2 sequence (P11229 whole entry): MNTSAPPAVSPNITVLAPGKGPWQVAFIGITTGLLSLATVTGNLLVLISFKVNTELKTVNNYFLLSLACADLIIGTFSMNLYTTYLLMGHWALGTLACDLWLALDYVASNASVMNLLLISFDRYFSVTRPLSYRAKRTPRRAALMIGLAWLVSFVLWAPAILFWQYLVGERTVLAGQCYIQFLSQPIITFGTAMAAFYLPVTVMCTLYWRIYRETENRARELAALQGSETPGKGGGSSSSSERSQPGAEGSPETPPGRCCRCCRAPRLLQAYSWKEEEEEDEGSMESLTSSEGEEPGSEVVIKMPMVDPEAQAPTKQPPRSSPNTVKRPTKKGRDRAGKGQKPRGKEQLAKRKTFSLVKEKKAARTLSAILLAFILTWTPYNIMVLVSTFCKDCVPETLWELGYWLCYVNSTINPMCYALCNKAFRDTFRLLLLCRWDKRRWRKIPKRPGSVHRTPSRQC
Briefly: (§1) Antagonist activity at human SP/Myc epitope-tagged muscarinic M1 receptor expressed in HEK293T cells assessed as inhibition of carbachol-induced RLuc8-fused Galphaq activation preincubated for 15 mins followed by carbachol induction measured after 2 mins by BRET assay. Format: cell-based, HEK-293T.

Series [9] addresses T3, Muscarinic acetylcholine receptor M1 (Homo sapiens) (UniProt P11229).
T3 sequence (whole entry): T2 sequence (P11229 whole entry)
The series is described as §1. Format: cell-based. The note with it: HEK-293T.

The target in series [10] is T4, Muscarinic acetylcholine receptor M4 (Homo sapiens, UniProt P08173).
T4 sequence (P08173 whole entry): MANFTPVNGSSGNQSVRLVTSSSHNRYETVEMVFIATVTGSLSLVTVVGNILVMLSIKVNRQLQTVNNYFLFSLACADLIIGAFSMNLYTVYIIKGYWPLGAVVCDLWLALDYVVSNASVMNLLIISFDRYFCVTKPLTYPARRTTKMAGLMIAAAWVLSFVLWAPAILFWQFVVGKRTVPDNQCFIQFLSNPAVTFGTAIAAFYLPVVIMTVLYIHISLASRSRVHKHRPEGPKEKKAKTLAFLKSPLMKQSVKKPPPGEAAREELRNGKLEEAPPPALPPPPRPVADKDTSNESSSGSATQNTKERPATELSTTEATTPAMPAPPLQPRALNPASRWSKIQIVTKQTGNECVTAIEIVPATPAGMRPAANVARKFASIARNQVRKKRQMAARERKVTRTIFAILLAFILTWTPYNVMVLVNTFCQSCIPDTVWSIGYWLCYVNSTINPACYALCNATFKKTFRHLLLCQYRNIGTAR
Briefly: (§2) Antagonist activity at human SP/Myc epitope-tagged muscarinic M4 receptor expressed in HEK293T cells assessed as inhibition of carbachol-induced RLuc8-fused Galphaq activation preincubated for 15 mins followed by carbachol induction measured after 2 mins by BRET assay. Format: cell-based, HEK-293T.

Series [11] has as its target T5, Muscarinic acetylcholine receptor M4 (Homo sapiens) (UniProt P08173).
T5 sequence (whole entry): T4 sequence (P08173 whole entry)
Described as §2. Format: cell-based. The note with it: HEK-293T.

Take `O=C1CCc2ccccc2N1CCCN1CCN(c2ccccc2)CC1`: the half-life in series [1] was 46.2 min; in [6] it was 55.8 min. Also, the Kp uu in [2] worked out at 4.05. Moreover, the Kp in series [3] was found to be 4.35. Further, the Tmax in series [4] stood at 15 min. Further, the fAUClast in the series on Plasma is 50.5 ng·h/mL. In series [5], this compound returned an AUC(0-t) of 518 ng·h/mL. Also, the EC50 on D(4) dopamine receptor is 0.158 nM. Moreover, in series [7], the highest level (Cmax) was 481 ng/mL.

With `O=C1CCc2ccccc2N1CCCN1CCC(Cc2ccccc2)CC1`, the IC50 in series [8] is 2630 nM; in [10], 8510 nM. Further, the Imax was 44% in [9] and 66% in series [11].

Usually half-life stands for the time in which the quantity being followed falls by half. The low end stands for rapid decline, the high end for slow decline. For orientation: Tmax means the time from dosing to the highest level. For orientation: AUC(0-t) means the area under the concentration-time curve up to a stated or last time point. Low values mean low exposure, high ones high exposure. The term EC50 denotes the concentration needed to bring the measured effect to its halfway point. What is called Cmax is the peak of the concentration-time curve. As usually defined, the IC50 is the concentration needed to halve the response being measured.
